Laboratory results: PMC3950497 (Advances in Pharmacological Sciences, 2014)
Read-outs that look alike come from different tables or passages of the source.

Legend:
[1] = assay type: in vivo, rabbit; conditions: for Measured mean concentration of stephaglabrin in plasma: i.m. stephaglabrine sulfate 0.1 mg/kg single dose
Procedure: The selected rabbits were administrated intramuscular with stephaglabrine sulfate at doses 0.1 mg/kg as it was established before. Each animal received a single dose.
Quantitative analysis was acquired in SRM (selected reactions monitoring) mode on Agilent 6490 triple quadrupole mass spectrometer (Agilent, USA) operated in the positive mode and equipped with Jet Stream ESI ion source. Stepharine was detected in the scheduled selected reaction monitoring (SRM) with unit resolution at both first (Q1) and third (Q3) quadrupoles. The retention time point of stepharine was determined as 9.8 with isolation width of 1 minute for the scheduled SRM method application. The optimal conditions of the analysis were achieved as follows: capillary voltage was −4500 V, nozzle voltage was set at −1200 V, flow rate of drying gas (N2) was 16 L/min, flow rate of sheath gas (N2) was 8 L/min, temperature of drying gas was set at 340°C, temperature of sheath gas was set at 290°C, and nebulizer gas was operated at 20 psi. The transitions for protonated stepharine [M+H]^+ 298.4 → 161.2, 192.1, 238.2 were selected for SRM analysis. The isolation window for the fragment ions was set at 0.27 amu, the optimum fragmentor voltage was adjusted to 310 V and collision energy −19 eV. All the samples including calibration points were analyzed in three replications. 30 μL of the samples was injected and loaded on chromatographic column. Calibration was performed on standard samples solution prepared in 20% acetonitrile with concentration of stepharine from 10^−4 μg/mL to 100 μg/mL. Chromatographic separation was performed on Thermo Hypersil-Keystone ODS column (Thermo Scientific, USA) 100 × 2.1 mm, 5 μm particle size, at flow rate of 200 μL/min and with the following elution conditions: loading onto the column at maintained 20% of mobile phase B for 3 minutes, increasing the gradient to 50% of B at 5 minutes following increasing the gradient to 100% of mobile phase B at 15 minutes. The column was washed and maintained at 100% mobile phase B from 15 to 22 minutes and the composition was decreased to 20% of solvent B at 23 minute. The column was reequilibrated at starting conditions of solvent A-solvent B system ([…], v/v) for 10 minutes at flow 200 μL/min.
0.5 mL of blood samples from each animal was collected from ear vein in the tubes with EDTA before administration and at 15, 30, 60, 90, 120, 180, 480, 720, and 1440 minutes after drug ingestion. Blood samples were immediately put on ice and centrifuged at 5000 g for 10 minutes at 4°C within one hour after blood collection. The obtained plasma was placed in sterile tube and kept at −20°C until analysis.
Plasma proteins were precipitated with acetonitrile. For this purpose, two volumes of acetonitrile were added to 100 μL of rabbit plasma into 1.5 mL plastic tube and 30% ammonia hydroxide was added to adjust the pH to 10. After vortex-mixing for 15 minutes at ambient temperature one volume of chloroform was added three times consequently for 2 hours and incubated at 30°C under regular stirring at 900 rpm at each occasion. The first fraction of upper organic layer was collected after 2 hours of incubation, the second and the third fractions of chloroform extract were collected after additional 30 and 60 minutes of incubation, respectively. The collected fractions were combined and transferred to a new tube and dried under vacuum at 30°C. The resulting pellet was resuspended in 100 μL of 20% water-acetonitrile solution and centrifuged at 14000 rpm for 15 minutes immediately before use. The obtained solution was used for LC-MS analysis. […]

[2] = assay type: physicochemical
Procedure: Freeze-thaw stability of stephaglabrine sulfate solution was evaluated because samples were stored at −20°C. The stability of stephaglabrine pool solutions (in water-acetonitrile 20%) at concentrations of 10 μg/mL, 50 μg/mL, and 100 μg/mL was evaluated after three cycles of overnight freezing following 3 hours of bench thaw at ambient temperature. The loss of stepharine was evaluated by comparison with freshly prepared standard solutions of the same concentrations. Loss of 10% and less was accepted.

SMILES: COc1cc2c3c(c1OC)C1(C=CC(=O)C=C1)C[C@@H]3NCC2 [stepharine]
- time of maximum concentration (C max) ([1]; all rabbits, i.m. 0.1 mg/kg stephaglabrine sulfate): 90 min
- Measured mean concentration of stephaglabrin in plasma ([1]; rabbit ST01, 15 min after administration): 8.1 ± 0.6 ng/mL
- Measured mean concentration of stephaglabrin in plasma ([1]; rabbit ST01, 30 min after administration): 9.4 ± 0.5 ng/mL
- Measured mean concentration of stephaglabrin in plasma ([1]; rabbit ST01, 60 min after administration): 10.0 ± 0.3 ng/mL
- Measured mean concentration of stephaglabrin in plasma ([1]; rabbit ST01, 90 min after administration): 13.9 ± 0.9 ng/mL
- Measured mean concentration of stephaglabrin in plasma ([1]; rabbit ST01, 120 min after administration): 5.8 ± 0.1 ng/mL
- Measured mean concentration of stephaglabrin in plasma ([1]; rabbit ST01, 180 min after administration): 3.8 ± 0.1 ng/mL
- Measured mean concentration of stephaglabrin in plasma ([1]; rabbit ST01, 480 min after administration): 1.8 ± 0.02 ng/mL
- Measured mean concentration of stephaglabrin in plasma ([1]; rabbit ST01, 720 min after administration): 1.5 ± 0.02 ng/mL
- Measured mean concentration of stephaglabrin in plasma ([1]; rabbit ST01, 1440 min after administration): 0 ng/mL
- Measured mean concentration of stephaglabrin in plasma ([1]; rabbit ST02, 15 min after administration): 7.9 ± 0.2 ng/mL
- Measured mean concentration of stephaglabrin in plasma ([1]; rabbit ST02, 30 min after administration): 16.5 ± 0.8 ng/mL
- Measured mean concentration of stephaglabrin in plasma ([1]; rabbit ST02, 60 min after administration): 29.3 ± 2.2 ng/mL
- Measured mean concentration of stephaglabrin in plasma ([1]; rabbit ST02, 90 min after administration): 33.9 ± 2.8 ng/mL
- Measured mean concentration of stephaglabrin in plasma ([1]; rabbit ST02, 120 min after administration): 10.4 ± 0.5 ng/mL
- Measured mean concentration of stephaglabrin in plasma ([1]; rabbit ST02, 180 min after administration): 7.8 ± 0.3 ng/mL
- Measured mean concentration of stephaglabrin in plasma ([1]; rabbit ST02, 480 min after administration): 1.2 ± 0.02 ng/mL
- Measured mean concentration of stephaglabrin in plasma ([1]; rabbit ST02, 720 min after administration): 1.3 ± 0.01 ng/mL
- Measured mean concentration of stephaglabrin in plasma ([1]; rabbit ST02, 1440 min after administration): 0 ng/mL
- Measured mean concentration of stephaglabrin in plasma ([1]; rabbit ST03, 15 min after administration): 6.8 ± 0.4 ng/mL
- Measured mean concentration of stephaglabrin in plasma ([1]; rabbit ST03, 30 min after administration): 14.8 ± 0.2 ng/mL
- Measured mean concentration of stephaglabrin in plasma ([1]; rabbit ST03, 60 min after administration): 19.5 ± 0.6 ng/mL
- Measured mean concentration of stephaglabrin in plasma ([1]; rabbit ST03, 90 min after administration): 20.4 ± 1.7 ng/mL
- Measured mean concentration of stephaglabrin in plasma ([1]; rabbit ST03, 120 min after administration): 6.5 ± 0.1 ng/mL
- Measured mean concentration of stephaglabrin in plasma ([1]; rabbit ST04, 15 min after administration): 5.7 ± 0.2 ng/mL
- Measured mean concentration of stephaglabrin in plasma ([1]; rabbit ST04, 30 min after administration): 7.3 ± 0.3 ng/mL
- Measured mean concentration of stephaglabrin in plasma ([1]; rabbit ST04, 60 min after administration): 9.5 ± 0.5 ng/mL
- Measured mean concentration of stephaglabrin in plasma ([1]; rabbit ST04, 90 min after administration): 14.2 ± 0.2 ng/mL
- Measured mean concentration of stephaglabrin in plasma ([1]; rabbit ST04, 120 min after administration): 9.7 ± 0.2 ng/mL
- Measured mean concentration of stephaglabrin in plasma ([1]; rabbit ST04, 180 min after administration): 2.8 ± 0.2 ng/mL
- Measured mean concentration of stephaglabrin in plasma ([1]; rabbit ST04, 480 min after administration): 0.7 ± 0.01 ng/mL
- Measured mean concentration of stephaglabrin in plasma ([1]; rabbit ST04, 720 min after administration): 0.6 ± 0.01 ng/mL
- Measured mean concentration of stephaglabrin in plasma ([1]; rabbit ST04, 1440 min after administration): 0 ng/mL
- Measured mean concentration of stephaglabrin in plasma ([1]; rabbit ST05, 15 min after administration): 6.3 ± 0.2 ng/mL
- Measured mean concentration of stephaglabrin in plasma ([1]; rabbit ST05, 30 min after administration): 12.7 ± 0.3 ng/mL
- Measured mean concentration of stephaglabrin in plasma ([1]; rabbit ST05, 60 min after administration): 18.5 ± 0.2 ng/mL
- Measured mean concentration of stephaglabrin in plasma ([1]; rabbit ST05, 90 min after administration): 21.2 ± 0.2 ng/mL
- Measured mean concentration of stephaglabrin in plasma ([1]; rabbit ST05, 120 min after administration): 5.1 ± 0.3 ng/mL
- Measured mean concentration of stephaglabrin in plasma ([1]; rabbit ST05, 180 min after administration): 2.9 ± 0.07 ng/mL
- Measured mean concentration of stephaglabrin in plasma ([1]; rabbit ST05, 480 min after administration): 1.4 ± 0.08 ng/mL
- Measured mean concentration of stephaglabrin in plasma ([1]; rabbit ST05, 720 min after administration): 0.9 ± 0.04 ng/mL
- Measured mean concentration of stephaglabrin in plasma ([1]; rabbit ST05, 1440 min after administration): 0 ng/mL
- Measured mean concentration of stephaglabrin in plasma ([1]; rabbit ST06, 15 min after administration): 7.0 ± 0.3 ng/mL
- Measured mean concentration of stephaglabrin in plasma ([1]; rabbit ST06, 30 min after administration): 13.9 ± 0.2 ng/mL
- Measured mean concentration of stephaglabrin in plasma ([1]; rabbit ST06, 60 min after administration): 20.4 ± 0.2 ng/mL
- Measured mean concentration of stephaglabrin in plasma ([1]; rabbit ST06, 90 min after administration): 25.8 ± 0.1 ng/mL
- Measured mean concentration of stephaglabrin in plasma ([1]; rabbit ST06, 120 min after administration): 7.6 ± 0.09 ng/mL
- Measured mean concentration of stephaglabrin in plasma ([1]; rabbit ST06, 180 min after administration): 3.3 ± 0.08 ng/mL
- Measured mean concentration of stephaglabrin in plasma ([1]; rabbit ST06, 480 min after administration): 1.2 ± 0.08 ng/mL
- Measured mean concentration of stephaglabrin in plasma ([1]; rabbit ST06, 720 min after administration): 0.7 ± 0.02 ng/mL
- Measured mean concentration of stephaglabrin in plasma ([1]; rabbit ST06, 1440 min after administration): 0 ng/mL
- presence in plasma samples after 24 hours ([1]; rabbits, 24 hours after intramuscular administration): not found
- apparent volume of distribution ([1]; rabbits, estimated as ratio of clearance to elimination rate constant, data not shown): extensively distributed throughout the body
- loss during three freeze-thaw cycles ([2]; solutions in water-acetonitrile 20% at 10, 50 and 100 μg/mL, overnight freezing, 3 hours bench thaw at ambient temperature): less than 6%
- mean sample stability ([2]; three freeze-thaw cycles, solutions in water-acetonitrile 20%): 94.6%
